Earlier results on five compounds are cited in patent publication US12357549B2, “Method for dyeing keratinous material, comprising the use of an organosilicon compound, a dyeing compound, a sealing reagent, and a pre-treatment agent” (Henkel AG & Co. KGaA, priority 2021, dated 2025).

For the data set the following is noted: 25° C.

In the case of `CCN(Cc1cccc(S(=O)(=O)[O-])c1)c1ccc(C(=C2C=CC(=[N+](CC)Cc3cccc(S(=O)(=O)[O-])c3)C=C2)c2ccccc2S(=O)(=O)[O-])cc1.[Na+].[Na+]` [Acid Blue 9], the water solubility entry is “more than 20 wt %”. For the compound `O=S(=O)([O-])c1ccc(N=Nc2c(O)ccc3ccccc23)cc1.[Na+]` [Acid Orange 7, sodium salt of 4-[(2-hydroxy-1-naphthyl)azo]benzenesulfonate], the solubility in water result is reported as “more than 7 g/L”. As for `Nc1cc(S(=O)(=O)[O-])cc2cc(S(=O)(=O)[O-])c(N=Nc3ccccc3)c(O)c12.[Na+].[Na+]` [Acid Red 33, disodium salt of 5-amino-4-hydroxy-3-(phenylazo)-naphthalene-2,7-disulfonate], the solubility in water is given as 2.5 g/L. In the case of `O=C([O-])c1c(Cl)c(Cl)c(Cl)c(Cl)c1-c1c2c(Br)cc(=O)c(Br)c-2oc2c(Br)c(O)cc(Br)c12.O=C([O-])c1c(Cl)c(Cl)c(Cl)c(Cl)c1-c1c2c(Br)cc(=O)c(Br)c-2oc2c(Br)c(O)cc(Br)c12.[Na+].[Na+]` [Acid Red 92, disodium salt of 3,4,5,6-tetrachloro-2-(1,4,5,8-tetrabromo-6-hydroxy-3-oxoxanthen-9-yl)benzoic acid], the solubility in water result was “greater than 10 g/L”. Consider `O=C([O-])C1=NN(c2ccc(S(=O)(=O)[O-])cc2)C(=O)C1N=Nc1ccc(S(=O)(=O)[O-])cc1.[Na+].[Na+].[Na+]` (centres unmarked) [Acid Yellow 23, trisodium salt of 4,5-dihydro-5-oxo-1-(4-sulfophenyl)-4-((4-sulfophenyl)azo)-1H-pyrazole-3-carboxylic acid], for which the “solubility in water (in words)” value is recorded as “readily soluble in water”.
